Type in all cases: biochemical
Design in all cases: from tissue

In one test the target is T1, MAGL (Mus musculus, UniProt O35678).
T1 sequence (O35678 1-303): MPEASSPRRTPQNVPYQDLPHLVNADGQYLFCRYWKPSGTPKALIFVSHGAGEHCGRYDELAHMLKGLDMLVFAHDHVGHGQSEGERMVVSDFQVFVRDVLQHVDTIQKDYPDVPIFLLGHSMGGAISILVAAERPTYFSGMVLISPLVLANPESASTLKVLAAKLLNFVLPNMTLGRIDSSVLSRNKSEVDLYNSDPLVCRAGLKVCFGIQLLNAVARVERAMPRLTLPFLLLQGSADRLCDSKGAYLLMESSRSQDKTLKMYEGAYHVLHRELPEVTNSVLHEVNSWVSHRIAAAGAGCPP
As to the kind of experiment: In vitro competitive ABPP, % inhibition at fixed concentration, MAGL. The gist of the method: (§1)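 Mouse brain membrane proteome or cell lysate at 1.0 mg/ml was preincubated with inhibitor for 30 min at 37° C, then labelled with FP-Rh for another 30 min. After SDS-PAGE, activity was quantified from the fluorescent intensity of the MAGL, ABHD6 and FAAH bands.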

For another test, the target named is T2, ABHD6 (Mus musculus, UniProt Q8R2Y0).
T2 sequence (Q8R2Y0 1-336): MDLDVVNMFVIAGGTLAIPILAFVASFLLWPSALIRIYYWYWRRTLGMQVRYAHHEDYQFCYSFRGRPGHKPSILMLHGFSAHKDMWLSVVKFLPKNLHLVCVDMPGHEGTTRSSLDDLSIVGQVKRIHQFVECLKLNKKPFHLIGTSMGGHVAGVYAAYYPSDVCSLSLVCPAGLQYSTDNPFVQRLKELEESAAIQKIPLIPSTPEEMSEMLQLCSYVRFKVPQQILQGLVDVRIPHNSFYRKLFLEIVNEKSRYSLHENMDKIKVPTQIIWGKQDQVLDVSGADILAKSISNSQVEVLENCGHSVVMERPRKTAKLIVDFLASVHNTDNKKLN
As to the kind of experiment: In vitro competitive ABPP, % inhibition at fixed concentration, ABHD6. The gist of the method:
as §1

The target in a further test is T3, FAAH (Mus musculus, UniProt O08914).
T3 sequence (O08914 1-579): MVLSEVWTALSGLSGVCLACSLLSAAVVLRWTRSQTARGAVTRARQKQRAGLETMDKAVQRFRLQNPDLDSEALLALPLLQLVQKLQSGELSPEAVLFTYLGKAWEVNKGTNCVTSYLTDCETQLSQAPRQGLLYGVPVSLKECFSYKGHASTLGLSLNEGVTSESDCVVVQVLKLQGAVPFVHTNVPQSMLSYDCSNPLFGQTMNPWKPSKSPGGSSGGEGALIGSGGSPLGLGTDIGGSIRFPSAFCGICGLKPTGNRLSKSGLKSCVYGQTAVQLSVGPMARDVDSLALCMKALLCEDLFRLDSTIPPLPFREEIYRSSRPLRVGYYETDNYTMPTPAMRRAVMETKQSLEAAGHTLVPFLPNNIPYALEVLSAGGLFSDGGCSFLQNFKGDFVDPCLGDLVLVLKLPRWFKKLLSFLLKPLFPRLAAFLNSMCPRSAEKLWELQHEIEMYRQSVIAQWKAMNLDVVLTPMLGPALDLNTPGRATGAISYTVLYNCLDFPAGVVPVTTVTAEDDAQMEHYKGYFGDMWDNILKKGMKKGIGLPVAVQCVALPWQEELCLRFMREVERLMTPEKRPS
The test can be described thus: In vitro competitive ABPP, % inhibition at fixed concentration, FAAH. Put shortly:
as §1

In the case of `CC(C)c1cc(N2CCCC2)ccc1CN1CCN(C(=O)ON2C(=O)CCC2=O)CC1` [Example 186, 2,5-Dioxopyrrolidin-1-yl 4-{[2-(propan-2-yl)-4-(pyrrolidin-1-yl)phenyl]methyl}piperazine-1-carboxylate], the figures for the inhibition at 1 µM at MAGL, on ABHD6 and on FAAH were 25 to 75%, 25 to 75% and under 25%, respectively.
Turning to `CC(C)c1cc(N2CCOCC2)ccc1CN1CCN(C(=O)ON2C(=O)CCC2=O)CC1` [Example 187, 2,5-Dioxopyrrolidin-1-yl 4-{[4-(morpholin-4-yl)-2-(propan-2-yl)phenyl]methyl}piperazine-1-carboxylate], the inhibition at 1 µM was 25 to 75% at MAGL, 25 to 75% at ABHD6 and under 25% at FAAH.
In the case of `O=C(ON1C(=O)CCC1=O)N1CCN(Cc2cccc(Cl)c2C(=O)N2CCCC2)CC1` [Example 190, 2,5-Dioxopyrrolidin-1-yl 4-{[3-chloro-2-(pyrrolidine-1-carbonyl)phenyl]methyl}piperazine-1-carboxylate], the inhibition at 1 µM on MAGL is 25 to 75%; at ABHD6, under 25%; at FAAH it was under 25%.
For the molecule `O=C(ON1C(=O)CCC1=O)N1CCN(Cc2ccc(C(=O)N3CCOCC3)cc2Cl)CC1` [Example 192, 2,5-dioxopyrrolidin-1-yl 4-{[2-chloro-4-(morpholine-4-carbonyl)phenyl]methyl}piperazine-1-carboxylate], the inhibition at 1 µM on MAGL is 25 to 75%; at ABHD6, 25 to 75%; at FAAH, under 25%.
For the molecule `O=C(ON1C(=O)CCC1=O)N1CCN(Cc2ccc(C(=O)N3CCCC3)cc2Cl)CC1` [Example 193, 2,5-Dioxopyrrolidin-1-yl 4-{[2-chloro-4-(pyrrolidine-1-carbonyl)phenyl]methyl}piperazine-1-carboxylate], the results for the inhibition at 1 µM on MAGL, on ABHD6 and on FAAH were 25 to 75%, 25 to 75% and under 25%, respectively.
On to `O=C(ON1C(=O)CCC1=O)N1CCN(Cc2ccc(C(=O)N3CCC3)cc2Cl)CC1` [Example 194, 2,5-Dioxopyrrolidin-1-yl 4-{[4-(azetidine-1-carbonyl)-2-chlorophenyl]methyl}piperazine-1-carboxylate], for which the inhibition at 1 µM is 25 to 75% at MAGL, 25 to 75% at ABHD6 and under 25% on FAAH.
`O=C(ON1C(=O)CCC1=O)N1CCN(Cc2ccc(Cl)cc2C(=O)N2CCOCC2)CC1` [Example 195, 2,5-Dioxopyrrolidin-1-yl 4-{[4-chloro-2-(morpholine-4-carbonyl)phenyl]methyl}piperazine-1-carboxylate]: the inhibition at 1 µM at MAGL, at ABHD6 and at FAAH was under 25% throughout.
Take `O=C(ON1C(=O)CCC1=O)N1CCN(Cc2ccc(Cl)cc2C(=O)N2CCCC2)CC1` [Example 196, 2,5-Dioxopyrrolidin-1-yl 4-{[4-chloro-2-(pyrrolidine-1-carbonyl)phenyl]methyl}piperazine-1-carboxylate]: the figures for the inhibition at 1 µM at MAGL, at ABHD6 and at FAAH were 25 to 75%, under 25% and under 25%, respectively.
For `O=C(ON1C(=O)CCC1=O)N1CCN(Cc2ccc(Cl)cc2C(=O)N2CCC2)CC1` [Example 197, 2,5-Dioxopyrrolidin-1-yl 4-{[2-(azetidine-1-carbonyl)-4-chlorophenyl]methyl}piperazine-1-carboxylate], the inhibition at 1 µM at MAGL, at ABHD6 and at FAAH was under 25% throughout.
For the molecule `O=C(ON1C(=O)CCC1=O)N1CCN(Cc2cccc(Cl)c2C(=O)N2CCOCC2)CC1` [Example 198, 2,5-Dioxopyrrolidin-1-yl 4-{[3-chloro-2-(morpholine-4-carbonyl)phenyl]methyl}piperazine-1-carboxylate], the inhibition at 1 µM on MAGL, at ABHD6 and on FAAH was under 25% in each case.
Turning to `O=C(ON1C(=O)CCC1=O)N1CCN(Cc2cc(Cl)ccc2C(=O)N2CCOCC2)CC1` [Example 199, 2,5-Dioxopyrrolidin-1-yl 4-{[5-chloro-2-(morpholine-4-carbonyl)phenyl]methyl}piperazine-1-carboxylate], the inhibition at 1 µM was under 25% at MAGL, 25 to 75% on ABHD6 and under 25% on FAAH.
On to `O=C(ON1C(=O)CCC1=O)N1CCN(Cc2cc(Cl)ccc2C(=O)N2CCCC2)CC1` [Example 200, 2,5-Dioxopyrrolidin-1-yl 4-{[5-chloro-2-(pyrrolidine-1-carbonyl)phenyl]methyl}piperazine-1-carboxylate], for which the inhibition at 1 µM on MAGL, at ABHD6 and on FAAH was under 25% each time.
For the molecule `Cc1ccc(C(=O)N2CCOCC2)c(CN2CCN(C(=O)ON3C(=O)CCC3=O)CC2)c1` [Example 201, 2,5-Dioxopyrrolidin-1-yl 4-{[5-methyl-2-(morpholine-4-carbonyl)phenyl]methyl}piperazine-1-carboxylate], the inhibition at 1 µM at MAGL, on ABHD6 and at FAAH was under 25% each time.
As to `Cc1ccc(C(=O)N2CCCC2)c(CN2CCN(C(=O)ON3C(=O)CCC3=O)CC2)c1` [Example 202, 2,5-Dioxopyrrolidin-1-yl 4-{[5-methyl-2-(pyrrolidine-1-carbonyl)phenyl]methyl}piperazine-1-carboxylate], the inhibition at 1 µM on MAGL, on ABHD6 and at FAAH was under 25% throughout.
With `O=C(ON1C(=O)CCC1=O)N1CCN(Cc2cc(C(F)(F)F)ccc2C(=O)N2CCOCC2)CC1` [Example 203, 2,5-Dioxopyrrolidin-1-yl 4-{[2-(morpholine-4-carbonyl)-5-(trifluoromethyl)phenyl]methyl}piperazine-1-carboxylate], the inhibition at 1 µM on MAGL, on ABHD6 and on FAAH was under 25% throughout.
Consider `O=C(ON1C(=O)CCC1=O)N1CCN(Cc2cc(C(F)(F)F)ccc2C(=O)N2CCCC2)CC1` [Example 204, 2,5-Dioxopyrrolidin-1-yl 4-{[2-(pyrrolidine-1-carbonyl)-5-(trifluoromethyl)phenyl]methyl}piperazine-1-carboxylate], for which the inhibition at 1 µM at MAGL, at ABHD6 and at FAAH was under 25% each time.
With `Cc1c(CN2CCN(C(=O)ON3C(=O)CCC3=O)CC2)cccc1C(=O)N1CCOCC1` [Example 205, 2,5-Dioxopyrrolidin-1-yl 4-{[2-methyl-3-(morpholine-4-carbonyl)phenyl]methyl}piperazine-1-carboxylate], the inhibition at 1 µM at MAGL is under 25%; on ABHD6 it was over 75%; on FAAH, under 25%.
As to `Cc1c(CN2CCN(C(=O)ON3C(=O)CCC3=O)CC2)cccc1C(=O)N1CCCC1` [Example 206, 2,5-Dioxopyrrolidin-1-yl 4-{[2-methyl-3-(pyrrolidine-1-carbonyl)phenyl]methyl}piperazine-1-carboxylate], the inhibition at 1 µM at MAGL was 25 to 75%; on ABHD6, over 75%; at FAAH it was under 25%.
Consider `Cc1c(CN2CCN(C(=O)ON3C(=O)CCC3=O)CC2)cccc1C(=O)N1CCC1` [Example 207, 2,5-Dioxopyrrolidin-1-yl 4-{[3-(azetidine-1-carbonyl)-2-methylphenyl]methyl}piperazine-1-carboxylate], for which the inhibition at 1 µM on MAGL was 25 to 75%; on ABHD6, over 75%; at FAAH, under 25%.
The corresponding values for `Cc1cc(CN2CCN(C(=O)ON3C(=O)CCC3=O)CC2)cc(C(=O)N2CCOCC2)c1` [Example 208, 2,5-Dioxopyrrolidin-1-yl 4-{[3-methyl-5-(morpholine-4-carbonyl)phenyl]methyl}piperazine-1-carboxylate] are under 25%, under 25% and under 25%.

What is called inhibition is how much of the control response was suppressed.

These data come from US9567302B2, “Carbamate compounds and of making and using same” (Abide Therapeutics, Inc., priority 2012, dated 2017).
